Measured values: patent publication US20130039928A1, “COMPOSITIONS AND METHODS FOR REVERSING CORTICOSTEROID RESISTANCE OR TREATING RESPIRATORY INFECTIONS” (priority 2010, published 2013)
“Also recorded” adds a separate entry of the source.

Assays:
[1] = system: secretory leukocyte protease inhibitor (SLPI); details: alveolar macrophages of patients with COPD, treated with or without sulforaphane
Method: (§1) Human alveolar macrophages were purified from individual BAL samples by centrifugation and seeded onto 6-well tissue culture plates. After incubation for 2 h, non-adherent cells were removed and the adherent cells were incubated with R, S-sulforaphane (5 μM; LKT Laboratories, Inc., St. Paul, Minn.) and or DMSO in RPMI 1640 culture medium with 10% FBS and 1% penicillin-streptomycin (Invitrogen, Carlsbad, Calif.). After 16-20 h, adherent cells were scraped, suspended in RPMI 1640 culture media and plated onto 96-well tissue culture plates for bacterial phagocytosis and clearance assays. […] For MARCO antibody-depletion, alveolar macrophages were incubated with human anti-MARCO antibody (1 μg/ml; (Hycult, Uden, The Netherlands) for 4 hours prior to bacterial challenge.

MARCO [2] = system: MARCO
Method: as §1
(§2) GAPDH was used for normalization.

Nrf2 = details: COPD alveolar macrophages
Method: as §1, §2

THP-1 macrophages = assay: Phagocytosis of FITC-PA in THP-1 macrophages; type: cell-based, human
Method: BMDM were isolated by culturing bone marrow cells in the presence of 10 ng/ml granulocyte-macrophage colony-stimulating factor (PeproTech) for 7 days. Murine macrophages were cultured in RPMI 1640 medium supplemented with 10% FBS and 1% penicillin-streptomycin. The human THP-1 cell line (American Type Culture Collection, Manassas, Va.) was grown in RPMI 1640 medium supplemented with 10% non-heat-inactivated fetal bovine serum and β-mercaptoethanol per manufacturer's instructions. Macrophage differentiation occurred through supplementation with 20 ng/ml Phorbol 12-myristate 13-acetate (Sigma Aldrich, St. Louis, Mo.) for 48 h.
Bacterial phagocytosis was quantified using a flow cytometry analysis.
THP-1 cells were infected with lentivirus particles containing MARCO shRNA (Open Biosystems, Huntsville, Ala.). Puromycin supplemented medium ensured positive selection of lentivirus plasmid-expres sing cells, and knockdown of MARCO mRNA and protein was confirmed by both real-time PCR and western blot.

MARCO [3] = details: alveolar macrophages from mice exposed to CS
Method: C57BL/6J mice were housed under controlled conditions for temperature and humidity, using a 12-hour light/dark cycle. At 8 weeks of age, mice were exposed to CS for (2.5 h/day for 5 days/week) for 1 week or 6 months using a machine that produces cigarette smoke (TE-10, Teague Enterprises) and reference cigarettes (2R4F) with a total suspended particle concentration of 250 mg/m^3 as previously described (T. E. Sussan et al., Proc Natl Acad Sci USA, (Dec. 22, 2008)). Following exposure to CS, mice were inoculated with PA or NTHI at a dose of 10^3 CFU in 50 μl of PBS intranasally. For sulforaphane administration (0.5 mg/mouse of R, S-sulforaphane in PBS), a nebulizer (Aerogen, Inc., Galway, Ireland) designed specifically for small animals was used.

GSH = details: COPD alveolar macrophages, 5 μM for 16 h
Method: (§3) For inducing corticosteroid resistance, PMs were exposed to cigarette smoke condensate (CSC, 100 μg/ml; Murty Pharmaceuticals, Lexington, Ky.) for 16 h. Exposure to S-nitrosoglutathione (GSNO, 10 μM) was limited to 4 h. […] For assessing corticosteroid responsiveness, macrophages were incubated with dexamethasone (1 μM, Sigma) for 1 h followed by LPS (100 ng/ml, Sigma) for additional 4 h.
(§4) HDAC activity was measured using a fluorescent derivative of ε-acetyl-lysine from Enzo life sciences (Farmingdale, N.Y.) according to the manufacturer's recommendations. HDAC2 was immunoprecipitated for analysis of enzymatic activity.

HDAC = details: COPD alveolar macrophages, versus vehicle
Method: as §3, §4

NO = NO levels and iNOS expression in alveolar macrophages; type: cell-based, human; details: COPD alveolar macrophages, vs vehicle
Method: as §3, §4
Total RNA was extracted from the cells by lysis and specific binding to a silica membrance (Qiagen RNeasy kit, Qiagen, Valencia, Calif.), and qRT-PCR was performed by using primers and probe sets for human IL-8, NQO1, GCLM, and iNOS (Assay-on-Demand, Applied Biosystems, Foster City, Calif.). A real-time fluorescent PCR system (ABI 7000 Taqman system, Applied Biosystems) was used to perform these assays. β-actin was used as the normalization control.

HDAC2 = details: CSC-exposed PMs
Method: Mice (C57BL/6 strain, 8-10 weeks old) were used for the studies. Exposure to CS (1 month) was carried out as described previously (Malhotra, D., et al., Am J Respir Crit Care Med 178, 592-604 (2008)). Residential peritoneal macrophages (PMs) isolation was carried out as described previously (Singh, A., et al., PLoS Med 3, e420 (2006)). Alveolar macrophages from mouse were isolated from bronchoalveolar lavage (BAL) fluid (Crimi, E., et al., Free Radic Biol Med 40, 398-406 (2006)).
as §3

## C[S+]([O-])CCCCN=C=S (stereo not shown) [sulforaphane]
[1]
  SLPI levels in cell free media: greater levels of SLPI
MARCO [2]; COPD alveolar macrophages, flow cytometry, compared to vehicle, p<0.001
  surface expression of MARCO protein: 2- to 5 fold
MARCO [2]; alveolar macrophages transfected with Nrf2-siRNA, compared to control ssRNA
  expression of MARCO mRNA: failed to upregulate the expression of MARCO mRNA
Nrf2
  Nrf2-regulated target genes (NQO1 & GPX2) mRNA: upregulation of Nrf2-regulated targets genes
Nrf2; flow cytometry, vs vehicle
  Nrf2 protein levels: elevated levels of Nrf2 protein
THP-1 macrophages; THP-1 macrophages transfected with Luc-shRNA
  phagocytosis of FITC-Pseudomonas aeruginosa: significantly elevated phagocytosis
THP-1 macrophages; THP-1 macrophages with MARCO-shRNA
  phagocytosis of FITC-Pseudomonas aeruginosa: but not in MARCO-shRNA
MARCO [3]
  MARCO expression: increased MARCO expression
GSH
  GSH levels: significantly elevated
HDAC
  enzymatic activity of total HDAC: significantly elevated
NO
  NO levels: significantly lower levels; also recorded: suppressed NO generation
  iNOS expression: significantly lower levels
HDAC2
  levels of SNO-HDAC2: significant reduction in the levels of SNO-HDAC2
